Test results as given in ChEMBL document CHEMBL1201861, “Genomics of Drug Sensitity in Cancer screening data, Wellcome Trust Sanger Institute”.

Assays:
Experiment in all cases: cells
NCI-H1648 = format: functional, cell-based, Homo sapiens; details: Homo sapiens, NCI-H1648;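 further: cell viability assay measuring inhibition of NCI-H1648 cell growth, from the Sanger screening data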
Description: SANGER: Inhibition of human NCI-H1648 cell growth in a cell viability assay.

DB = format: functional, cell-based; details: Homo sapiens
Description: SANGER: Inhibition of human DB cell growth in a cell viability assay.

MFM-223 = format: functional, cell-based, Homo sapiens; details: Homo sapiens, MFM-223
Description: SANGER: Inhibition of human MFM-223 cell growth in a cell viability assay.

NCI-H1650 = format: functional, cell-based, Homo sapiens; details: Homo sapiens, NCI-H1650;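 further: growth inhibition of human NCI-H1650 cells measured by a cell viability assay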
Description: SANGER: Inhibition of human NCI-H1650 cell growth in a cell viability assay.

ES4 = format: functional, cell-based, Homo sapiens; details: Homo sapiens, ES4;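 further: growth inhibition of human ES4 cells, read out by a cell viability assay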
Description: SANGER: Inhibition of human ES4 cell growth in a cell viability assay.

KURAMOCHI = format: functional, cell-based; details: Homo sapiens;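 further: growth inhibition of KURAMOCHI cells, read out with a cell viability assay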
Description: SANGER: Inhibition of human KURAMOCHI cell growth in a cell viability assay.

8-MG-BA = format: functional, cell-based, Homo sapiens; details: Homo sapiens, 8-MG-BA;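 further: growth inhibition of 8-MG-BA cells, read out with a cell viability assay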
Description: SANGER: Inhibition of human 8-MG-BA cell growth in a cell viability assay.

ES6 = format: functional, cell-based, Homo sapiens; details: Homo sapiens, ES6;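 further: growth inhibition of human ES6 cells, read out with a cell viability assay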
Description: SANGER: Inhibition of human ES6 cell growth in a cell viability assay.

LB2518-MEL = format: functional, cell-based, Homo sapiens; details: Homo sapiens, LB2518-MEL;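 further: growth inhibition of human LB2518-MEL cells, measured with a cell viability assay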
Description: SANGER: Inhibition of human LB2518-MEL cell growth in a cell viability assay.

SBC-1 = format: functional, cell-based; details: Homo sapiens;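 further: cell viability assay measuring growth inhibition of the SBC-1 cell line, IC50 being the concentration that halves growth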
Description: SANGER: Inhibition of human SBC-1 cell growth in a cell viability assay.

GI-1 = format: functional, cell-based, Homo sapiens; details: Homo sapiens, GI-1;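 further: growth inhibition of human GI-1 cells, measured with a cell viability readout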
Description: SANGER: Inhibition of human GI-1 cell growth in a cell viability assay.

MZ1-PC = format: functional, cell-based, Homo sapiens; details: Homo sapiens, MZ1-PC;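 further: cell viability assay measuring growth inhibition of human MZ1-PC cells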
Description: SANGER: Inhibition of human MZ1-PC cell growth in a cell viability assay.

A101D = format: functional, cell-based, Homo sapiens; details: Homo sapiens, A101D;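 further: growth inhibition of the cell line, measured with a viability assay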
Description: SANGER: Inhibition of human A101D cell growth in a cell viability assay.

MN-60 = format: functional, cell-based; details: Homo sapiens;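 further: growth inhibition of the MN-60 cell line, determined with a cell viability assay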
Description: SANGER: Inhibition of human MN-60 cell growth in a cell viability assay.

NCI-H720 = format: functional, cell-based; details: Homo sapiens;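 further: growth inhibition of human NCI-H720 cells determined by a cell viability assay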
Description: SANGER: Inhibition of human NCI-H720 cell growth in a cell viability assay.

NCI-H446 = format: functional, cell-based; details: Homo sapiens;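 further: growth inhibition of NCI-H446 cells determined by a cell viability assay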
Description: SANGER: Inhibition of human NCI-H446 cell growth in a cell viability assay.

JVM-2 = format: functional, cell-based; details: Homo sapiens;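 further: growth inhibition of JVM-2 cells determined by a cell viability assay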
Description: SANGER: Inhibition of human JVM-2 cell growth in a cell viability assay.

HT-144 = format: functional, cell-based, Homo sapiens; details: Homo sapiens, HT-144
Description: SANGER: Inhibition of human HT-144 cell growth in a cell viability assay.

CTV-1 = format: functional, cell-based; details: Homo sapiens;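 further: growth inhibition of the cell line, read out with a cell viability assay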
Description: SANGER: Inhibition of human CTV-1 cell growth in a cell viability assay.

HEL = format: functional, cell-based, Homo sapiens; details: Homo sapiens, HEL;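 further: growth inhibition of HEL cells, read out with a cell viability assay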
Description: SANGER: Inhibition of human HEL cell growth in a cell viability assay.

NMC-G1 = format: functional, cell-based, Homo sapiens; details: Homo sapiens, NMC-G1;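 further: growth inhibition of the NMC-G1 cell line, measured with a cell viability read-out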
Description: SANGER: Inhibition of human NMC-G1 cell growth in a cell viability assay.

OVCAR-4 = format: functional, cell-based, Homo sapiens; details: Homo sapiens, OVCAR-4;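 further: growth inhibition of human OVCAR-4 cells, measured with a cell viability assay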
Description: SANGER: Inhibition of human OVCAR-4 cell growth in a cell viability assay.

KARPAS-45 = format: functional, cell-based; details: Homo sapiens;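 further: inhibition of cell line growth, read out through a viability assay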
Description: SANGER: Inhibition of human KARPAS-45 cell growth in a cell viability assay.

LS-411N = format: functional, cell-based, Homo sapiens; details: Homo sapiens, LS-411N
DOHH-2 = format: functional, cell-based; details: Homo sapiens;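 further: growth inhibition of human DOHH-2 cells, read out with a cell viability assay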
Description: SANGER: Inhibition of human DOHH-2 cell growth in a cell viability assay.

SNU-5 = format: functional, cell-based; details: Homo sapiens;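 further: cell viability readout used to measure growth inhibition in human NCI-SNU-5 cells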
Description: SANGER: Inhibition of human NCI-SNU-5 cell growth in a cell viability assay.

HT = format: functional, cell-based; details: Homo sapiens
Description: SANGER: Inhibition of human HT cell growth in a cell viability assay.

IA-LM = format: functional, cell-based, Homo sapiens; details: Homo sapiens, IA-LM;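 further: cell viability assay measuring growth inhibition of human IA-LM cells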
Description: SANGER: Inhibition of human IA-LM cell growth in a cell viability assay.

SMILES | IC50 (NCI-H1648) [µM] | IC50 (DB) [µM] | IC50 (MFM-223) [µM] | IC50 (ES4) [µM] | IC50 (8-MG-BA) [µM] | IC50 (ES6) [µM] | IC50 (LB2518-MEL) [µM] | IC50 (SBC-1) [µM] | IC50 (GI-1) [µM] | IC50 (MZ1-PC) [µM] | IC50 (A101D) [µM] | IC50 (MN-60) [µM] | IC50 (NCI-H720) [µM] | IC50 (NCI-H446) [µM] | IC50 (JVM-2) [µM] | IC50 (HT-144) [µM] | IC50 (CTV-1) [µM] | IC50 (HEL) [µM] | IC50 (NMC-G1) [µM] | IC50 (OVCAR-4) [µM] | further results
C=C1C(=O)O[C@@H]2C3O[C@]3(C)CC/C=C(\C)CC[C@@H]12 (stereo partly specified) | > 5 | > 5 | > 5 | > 5 | > 5 | > 5 | > 5 | > 5 | > 5 | > 5 | > 5 | > 5 | > 5 | > 5 | > 5 | > 5 | > 5 | 3.18 | > 5 | > 5 | IC50 (NCI-H1650): > 5 µM; IC50 (KURAMOCHI): > 5 µM; IC50 (KARPAS-45): > 5 µM; IC50 (LS-411N): > 5 µM; IC50 (DOHH-2): > 5 µM; IC50 (SNU-5): > 5 µM; IC50 (HT): > 5 µM
CC1=C2C[C@H]3[C@@H](CC=C4C[C@@H](O)CC[C@@]43C)[C@@H]2CC[C@]12O[C@@H]1C[C@H](C)CN[C@H]1[C@H]2C [CYCLOPAMINE] | > 16 | > 16 | > 16 | > 16 | 13.1 | > 16 | > 16 | > 16 | > 16 | > 16 | > 16 | > 16 | > 16 | > 16 | > 16 | > 16 | > 16 | > 16 | > 16 | > 16 | IC50 (NCI-H1650): > 16 µM; IC50 (KARPAS-45): > 16 µM; IC50 (LS-411N): > 16 µM; IC50 (DOHH-2): 9.36 µM; IC50 (SNU-5): > 16 µM; IC50 (HT): > 16 µM
CS(=O)(=O)CCNCc1ccc(-c2ccc3ncnc(Nc4ccc(OCc5cccc(F)c5)c(Cl)c4)c3c2)o1 [LAPATINIB] | 0.0254 | > 2 | > 2 | > 2 | > 2 | > 2 | > 2 | > 2 | > 2 | > 2 | > 2 | > 2 | > 2 | > 2 | > 2 | > 2 | > 2 | > 2 | > 2 | > 2 | IC50 (NCI-H1650): > 2 µM; IC50 (KURAMOCHI): > 2 µM; IC50 (KARPAS-45): > 2 µM; IC50 (LS-411N): > 2 µM; IC50 (DOHH-2): > 2 µM; IC50 (SNU-5): > 2 µM; IC50 (HT): > 2 µM
CCc1nc(N)nc(N)c1-c1ccc(Cl)cc1 [PYRIMETHAMINE] | > 20 | > 20 | > 20 | 3.12 | > 20 | 17.2 | > 20 | > 20 | > 20 | > 20 | > 20 | > 20 | > 20 | > 20 | > 20 | 6.8 | 2.48 | 2.67 | > 20 | 4.15 | IC50 (NCI-H1650): > 20 µM; IC50 (KURAMOCHI): > 20 µM; IC50 (KARPAS-45): > 20 µM; IC50 (LS-411N): 0.837 µM; IC50 (DOHH-2): > 20 µM; IC50 (SNU-5): > 20 µM; IC50 (HT): > 20 µM
O=C(/C=C/c1ccccc1)NC(NC(=S)Nc1cccc2cccnc12)C(Cl)(Cl)Cl (stereo unspecified) [SALUBRINAL] | > 16 | > 16 | > 16 | > 16 | 11 | > 16 | 7.97 | > 16 | > 16 | > 16 | 13.8 | > 16 | 7.57 | > 16 | > 16 | > 16 | > 16 | 10.6 | > 16 | 14.8 | IC50 (NCI-H1650): > 16 µM; IC50 (KURAMOCHI): > 16 µM; IC50 (KARPAS-45): > 16 µM; IC50 (LS-411N): > 16 µM; IC50 (DOHH-2): 10.2 µM; IC50 (SNU-5): > 16 µM; IC50 (HT): 8.94 µM
CN1CCN(CCOc2cc(OC3CCOCC3)c3c(Nc4c(Cl)ccc5c4OCO5)ncnc3c2)CC1 [SARACATINIB] | 0.281 | > 2 | > 2 | > 2 | > 2 | > 2 | > 2 | > 2 | > 2 | > 2 | > 2 | > 2 | > 2 | > 2 | > 2 | > 2 | 0.0614 | > 2 | > 2 | > 2 | IC50 (KURAMOCHI): > 2 µM; IC50 (KARPAS-45): > 2 µM; IC50 (LS-411N): > 2 µM; IC50 (IA-LM): > 2 µM; IC50 (DOHH-2): 1.72 µM; IC50 (SNU-5): > 2 µM; IC50 (HT): > 2 µM
CO[C@H]1C[C@@H]2CC[C@@H](C)[C@@](O)(O2)C(=O)C(=O)N2CCCC[C@H]2C(=O)O[C@H]([C@H](C)C[C@@H]2CC[C@@H](O)[C@H](OC)C2)CC(=O)[C@H](C)/C=C(\C)[C@@H](O)[C@@H](OC)C(=O)[C@H](C)C[C@H](C)/C=C/C=C/C=C/1C [SIROLIMUS] | > 0.1 | > 0.1 | > 0.1 | < 0.000391 | > 0.1 | 0.00343 | > 0.1 | > 0.1 | 0.0704 | > 0.1 | 0.0326 | > 0.1 | 0.0254 | > 0.1 | > 0.1 | > 0.1 | > 0.1 | 0.0498 | 0.0337 | > 0.1 | IC50 (NCI-H1650): > 0.1 µM; IC50 (KURAMOCHI): > 0.1 µM; IC50 (KARPAS-45): > 0.1 µM; IC50 (LS-411N): 0.0776 µM; IC50 (IA-LM): 0.0681 µM; IC50 (DOHH-2): 0.00335 µM; IC50 (SNU-5): > 0.1 µM; IC50 (HT): 0.0176 µM
CNC(=O)c1cc(Oc2ccc(NC(=O)Nc3ccc(Cl)c(C(F)(F)F)c3)cc2)ccn1 [SORAFENIB] | > 4 | > 4 | > 4 | > 4 | > 4 | > 4 | 1.21 | > 4 | > 4 | 3.48 | > 4 | > 4 | > 4 | > 4 | > 4 | > 4 | > 4 | > 4 | > 4 | 2.21 | IC50 (KURAMOCHI): > 4 µM; IC50 (KARPAS-45): > 4 µM; IC50 (LS-411N): > 4 µM; IC50 (DOHH-2): > 4 µM; IC50 (SNU-5): > 4 µM; IC50 (HT): > 4 µM
CCC(=O)N1CCN(c2ccc(-n3c(=O)ccc4cnc5ccc(-c6cnc7ccccc7c6)cc5c43)cc2C(F)(F)F)CC1 [TORIN1] | 0.0362 | 0.501 | > 1.2 | 0.083 | 0.0463 | 0.0108 | 0.087 | 0.111 | 0.0247 | 0.066 | 0.0265 | 0.299 | 0.55 | 0.169 | > 1.2 | 0.0145 | 0.0655 | 0.0164 | 0.0345 | 0.0309 | IC50 (NCI-H1650): > 1.2 µM; IC50 (KURAMOCHI): 0.0241 µM; IC50 (KARPAS-45): 0.782 µM; IC50 (LS-411N): 0.0144 µM; IC50 (IA-LM): 0.0292 µM; IC50 (DOHH-2): 0.00225 µM; IC50 (SNU-5): 0.136 µM; IC50 (HT): 0.08 µM
Cc1cc(Nc2cc(N3CCN(C)CC3)nc(Sc3ccc(NC(=O)C4CC4)cc3)n2)n[nH]1 [TOZASERTIB] | > 2 | > 2 | > 2 | 0.911 | > 2 | > 2 | > 2 | 1.13 | > 2 | > 2 | 1.87 | > 2 | > 2 | > 2 | > 2 | 0.638 | 0.588 | > 2 | > 2 | > 2 | IC50 (NCI-H1650): > 2 µM; IC50 (KURAMOCHI): 1.79 µM; IC50 (KARPAS-45): > 2 µM; IC50 (LS-411N): 0.578 µM; IC50 (IA-LM): > 2 µM; IC50 (DOHH-2): 0.338 µM; IC50 (SNU-5): > 2 µM; IC50 (HT): > 2 µM
